The source of these data is patent publication US11427548B2 (Arvinas Operations, Inc., priority 2015, dated 2022).

Like-named read-outs stand apart in the source and are kept apart here. Some results are limits rather than exact numbers.

The target of this experiment is T1, Androgen Receptor (Homo sapiens, UniProt P10275).
T1 construct: endogenous in cells; host or cells: VCaP cells
T1 sequence (P10275 1-920): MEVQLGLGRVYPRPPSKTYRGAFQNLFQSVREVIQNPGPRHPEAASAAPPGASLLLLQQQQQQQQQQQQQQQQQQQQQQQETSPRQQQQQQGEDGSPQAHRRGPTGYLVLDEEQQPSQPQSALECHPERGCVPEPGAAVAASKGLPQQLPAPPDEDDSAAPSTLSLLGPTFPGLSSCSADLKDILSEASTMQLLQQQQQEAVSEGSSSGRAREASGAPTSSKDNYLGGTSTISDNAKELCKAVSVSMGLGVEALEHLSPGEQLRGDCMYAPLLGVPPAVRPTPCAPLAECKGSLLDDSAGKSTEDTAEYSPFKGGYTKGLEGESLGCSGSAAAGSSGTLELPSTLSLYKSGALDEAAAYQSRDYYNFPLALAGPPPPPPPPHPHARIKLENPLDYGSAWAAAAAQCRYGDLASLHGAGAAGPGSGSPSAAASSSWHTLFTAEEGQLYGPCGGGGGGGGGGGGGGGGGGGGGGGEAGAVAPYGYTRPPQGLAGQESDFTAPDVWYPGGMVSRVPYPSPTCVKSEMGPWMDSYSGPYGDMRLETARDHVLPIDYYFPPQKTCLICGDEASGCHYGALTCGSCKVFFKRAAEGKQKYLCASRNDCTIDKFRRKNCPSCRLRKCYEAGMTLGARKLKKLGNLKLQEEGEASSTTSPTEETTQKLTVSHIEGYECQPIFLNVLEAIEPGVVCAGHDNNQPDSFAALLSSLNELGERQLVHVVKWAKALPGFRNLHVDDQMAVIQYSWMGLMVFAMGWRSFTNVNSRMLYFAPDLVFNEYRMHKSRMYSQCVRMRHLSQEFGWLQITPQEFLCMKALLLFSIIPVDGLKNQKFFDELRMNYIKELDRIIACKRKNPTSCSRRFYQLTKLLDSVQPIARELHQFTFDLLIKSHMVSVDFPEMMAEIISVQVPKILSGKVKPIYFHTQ
Description: Androgen Receptor ELISA assay (PathScan AR ELISA) in VCaP cells: AR degradation, Dmax and DC50. The format is cell-based. Summed up: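 VCaP cells, 30,000/well, grown ≥3 days in phenol red-free RPMI with 5% charcoal-stripped FBS; compound added in 0.1% DMSO with 0.1 nM R1881, 7 half-log doses, 24 h. Lysate AR quantified by PathScan sandwich ELISA, HRP/TMB read at 450 nm, giving DC50 and Dmax.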

Setting [1] is: VCaP cells; Table 36; read-out: VCaP DC50.
Setting [2] is: VCaP, VCaP cells; Table 36; read-out: VCaP Dmax (%).
The mark [3] stands for this setting: VCaP, read-out: VCaP Dmax (%), VCaP cells; Table 36.
[4] abbreviates: read-out: VCaP DC50; VCaP cells; Table 36.

The term DC50 denotes the concentration at which degradation of the target reaches its halfway point. In general, Dmax refers to the largest share of the target that was removed. As for `Cc1ncsc1-c1ccc([C@H](C)NC(=O)[C@@H]2C[C@@H](O)CN2C(=O)[C@@H](NC(=O)COCCN2CCN(c3ccc(C(=O)N[C@H]4C(C)(C)[C@H](Oc5ccc(C#N)c(Cl)c5)C4(C)C)nc3)CC2)C(C)(C)C)cc1` [Example 654, N-((1r,3r)-3-(3-chloro-4-cyanophenoxy)-2,2,4,4-tetramethylcyclobutyl)-5-(4-(2-(2-(((S)-1-((2S,4R)-4-hydroxy-2-(((S)-1-(4-(4-methylthiazol-5-yl)phenyl)ethyl)carbam-oyl)pyrrolidin-1-yl)-3,3-dimethyl-1-oxobutan-2-yl)amino)-2-oxoethoxy)ethyl)pipera-zin-1-yl)picolinamide], under setting [1], the DC50 was < 50 nM. The Dmax under setting [2] was > 71%.

As for `Cc1ncsc1-c1ccc([C@H](C)NC(=O)[C@@H]2C[C@@H](O)CN2C(=O)[C@@H](NC(=O)[C@H](CO)N2CCN(CCOc3ccc(C(=O)N[C@H]4C(C)(C)[C@H](Oc5ccc(C#N)c(Cl)c5)C4(C)C)cc3)CC2)C(C)(C)C)cc1` [Example 655, (2S,4R)-1-((S)-2-((S)-2-(4-(2-(4-(((1r,3r)-3-(3-chloro-4-cyanophenoxy)-2,2,4,4-tetramethylcyclobutyl)carbamoyl)phenoxy)eth-yl)piperazin-1-yl)-3-hydroxypropanamido)-3,3-dimethylbutanoyl)-4-hydroxy-N-((S)-1-(4-(4-methylthiazol-5-yl)phenyl)ethyl)pyrrolidine-2-carboxamide], the DC50 under setting [1] is > 501 nM. Besides, the Dmax (VCaP, read-out: VCaP Dmax (%)) was 26 to 50%.

For `Cc1ncsc1-c1ccc([C@H](C)NC(=O)[C@@H]2C[C@@H](O)CN2C(=O)[C@@H](NC(=O)COCCCCCNc2ccc(C(=O)N[C@H]3C(C)(C)[C@H](Oc4ccc(C#N)c(Cl)c4)C3(C)C)cc2F)C(C)(C)C)cc1` [Example 656, (2S,4R)-1-((S)-2-(2-((5-((4-(((1r,3r)-3-(3-chloro-4-cyanophenoxy)-2,2,4,4-tetramethylcyclobutyl)carbamoyl)-2-fluorophenyl)amino)pentyl)oxy)acetamido)-3,3-dimethylbutanoyl)-4-hydroxy-N-((S)-1-(4-(4-methylthiazol-5-yl)phenyl)ethyl)pyrrolidine-2-carboxamide], the DC50 under setting [1] is < 50 nM. In addition, the Dmax under setting [3] is > 71%.

With `Cc1ncsc1-c1ccc([C@H](C)NC(=O)[C@@H]2C[C@@H](O)CN2C(=O)[C@@H](NC(=O)COCCCCCc2ccc(C(=O)N[C@H]3C(C)(C)[C@H](Oc4ccc(C#N)c(C(F)(F)F)c4)C3(C)C)cc2)C(C)(C)C)cc1` [Example 657, (2S,4R)-1-((S)-2-(2-((5-(4-(((1r,3r)-3-(4-cyano-3-(trifluoromethyl)phenoxy)-2,2,4,4-tetramethylcyclobutyl)carbamoyl)phenyl)pentyl)oxy)acetamido)-3,3-dimethylbutanoyl)-4-hydroxy-N-((S)-1-(4-(4-methylthiazol-5-yl)phenyl)ethyl)pyrrolidine-2-carboxamide], under setting [1], the DC50 is < 50 nM. The Dmax under setting [3] was 51 to 70%.

On to `Cc1ncsc1-c1ccc([C@H](C)NC(=O)[C@@H]2C[C@@H](O)CN2C(=O)[C@H](c2cc(OCCN3CCN(c4ccc(C(=O)N[C@H]5C(C)(C)[C@H](Oc6ccc(C#N)c(Cl)c6)C5(C)C)cn4)CC3)no2)C(C)C)cc1` [Example 658, N-((1r,3r)-3-(3-chloro-4-cyanophenoxy)-2,2,4,4-tetramethylcyclobutyl)-6-(4-(2-((5-((S)-1-((2S,4R)-4-hydroxy-2-(((S)-1-(4-(4-methylthiazol-5-yl)phenyl)ethyl)carbam-oyl)pyrrolidin-1-yl)-3-methyl-1-oxobutan-2-yl)isoxazol-3-yl)oxy)ethyl)piperazin-1-yl)nicotinamide], for which the DC50 under setting [1] was > 501 nM. For the same molecule, under setting [2], the Dmax was < 25%.

On to `Cc1ncsc1-c1ccc([C@H](C)NC(=O)[C@@H]2C[C@@H](O)CN2C(=O)[C@@H](c2cc(OCCN3CCN(c4ccc(C(=O)N[C@H]5C(C)(C)[C@H](Oc6ccc(C#N)c(Cl)c6)C5(C)C)cn4)CC3)no2)C(C)C)cc1` [Example 659, N-((1r,3r)-3-(3-chloro-4-cyanophenoxy)-2,2,4,4-tetramethylcyclobutyl)-6-(4-(2-((5-((R)-1-((2S,4R)-4-hydroxy-2-(((S)-1-(4-(4-methylthiazol-5-yl)phenyl)ethyl)carbam-oyl)pyrrolidin-1-yl)-3-methyl-1-oxobutan-2-yl)isoxazol-3-yl)oxy)ethyl)piperazin-1-yl)nicotinamide], for which the 50% degradation concentration (DC50) under setting [1] is < 50 nM. Under setting [2], the Dmax is > 71%.

As to `Cc1ncsc1-c1ccc([C@H](C)NC(=O)[C@@H]2C[C@@H](O)CN2C(=O)[C@@H](NC(=O)COCCN2CCN(c3ccc(C(=O)N[C@H]4C(C)(C)[C@H](Oc5ccc(C#N)c(Cl)c5)C4(C)C)cc3)CC2)C(C)(C)O)cc1` [Example 660, (2S,4R)-1-((S)-2-(2-(2-(4-(4-(((1r,3r)-3-(3-chloro-4-cyanophenoxy)-2,2,4,4-tetramethylcyclobutyl)carbamoyl)phenyl)piper-azin-1-yl)ethoxy)acetamido)-3-hydroxy-3-methylbutanoyl)-4-hydroxy-N-((S)-1-(4-(4-methylthiazol-5-yl)phenyl)ethyl)pyrrolidine-2-carboxamide], under setting [1], the DC50 was > 501 nM. Moreover, the Dmax under setting [3] is 26 to 50%.

Turning to `Cc1ncsc1-c1ccc(C(C)NC(=O)C2CC(O)CN2C(=O)C(NC(=O)COCCCOCCCCCOc2ccc(N3C(=S)N(c4ccc(C#N)c(C(F)(F)F)c4)C(=O)C3(C)C)cc2)C2COC2)cc1` (stereo not shown) [Example 661, 1-(2-(2-(3-((5-(4-(3-(4-cyano-3-(trifluoromethyl)phenyl)-5,5-dimethyl-4-oxo-2-thioxoimidazolidin-1-yl)phenoxy)pentyl)oxy)propoxy)acetamido)-2-(oxetan-3-yl)acetyl)-4-hydroxy-N-(1-(4-(4-methylthiazol-5-yl)phenyl)ethyl)pyrrolidine-2-carboxamide], the Dmax (VCaP, read-out: VCaP Dmax (%)) was < 25%. For the same molecule, the DC50 under setting [4] is > 501 nM.

For the molecule `Cc1cn(-c2ccc([C@H](C)NC(=O)[C@@H]3C[C@@H](O)CN3C(=O)[C@@H](NC(=O)COCCCOCCCCCOc3ccc(N4C(=S)N(c5ccc(C#N)c(C(F)(F)F)c5)C(=O)C4(C)C)cc3)C(C)(C)C)cc2)cn1` [Example 663, (2S,4R)-1-((S)-2-(2-(3-((5-(4-(3-(4-cyano-3-(trifluoromethyl)phenyl)-5,5-dimethyl-4-oxo-2-thioxoimidazolidin-1-yl)phenoxy)pentyl)oxy)propoxy)acetamido)-3,3-dimethylbutanoyl)-4-hydroxy-N-((S)-1-(4-(4-methyl-1H-imidazol-1-yl)phenyl)ethyl)pyrrolidine-2-carboxamide], under “VCaP, read-out: VCaP Dmax (%)”, the Dmax was < 25%. Besides, the DC50 under setting [4] is > 501 nM.

In the case of `Cc1ncsc1-c1ccc([C@H](C)NC(=O)[C@@H]2C[C@@H](O)CN2C(=O)[C@@H](NC(=O)[C@H](C)OCCN2CCN(c3ccc(C(=O)N[C@H]4C(C)(C)[C@H](Oc5ccc(C#N)c(Cl)c5)C4(C)C)cc3)CC2)C(C)(C)C)cc1` [Example 664, (2S,4R)-1-((S)-2-((S)-2-(2-(4-(4-(((1r,3r)-3-(3-chloro-4-cyanophenoxy)-2,2,4,4-tetramethylcyclobutyl)carbamoyl)phenyl)piper-azin-1-yl)ethoxy)propanamido)-3,3-dimethylbutanoyl)-4-hydroxy-N-((S)-1-(4-(4-methylthiazol-5-yl)phenyl)ethyl)pyrrolidine-2-carboxamide], under setting [1], the DC50 was < 50 nM. In addition, the Dmax under setting [3] lay within 51 to 70%.

In the case of `Cc1ncsc1-c1ccc([C@H](C)NC(=O)[C@@H]2C[C@@H](O)CN2C(=O)[C@@H](NC(=O)CN2CCN(CCCc3ccc(C(=O)N[C@H]4C(C)(C)[C@H](Oc5ccc(C#N)c(C(F)(F)F)c5)C4(C)C)cc3)CC2)C(C)(C)C)cc1` [Example 665, (2S,4R)-1-((S)-2-(2-(4-(3-(4-(((1r,3r)-3-(4-cyano-3-(trifluoromethyl)phenoxy)-2,2,4,4-tetramethylcyclobutyl)carbamoyl)phenyl)propyl)piperazin-1-yl)acetamido)-3,3-dimethylbutanoyl)-4-hydroxy-N-((S)-1-(4-(4-methylthiazol-5-yl)phenyl)ethyl)pyrrolidine-2-carboxamide], the DC50 under setting [1] is < 50 nM. For the same molecule, the Dmax under setting [2] fell in the range of 51 to 70%.
